In US20150267174A1, “REPROGRAMMING PEPTIDE AND USE THEREOF” (priority 2012, published 2015):
Square brackets hold non-standard residues; d marks the D form. Cysamide = C-terminal cysteamide

Legend:
Type in all cases: cell-based
[1] = test system: Human adult fibroblast strain TIG113; experiment: Spheroid formation after reverse transfection of peptide into fibroblasts; conditions: for spheroid formation ability (in words): reverse transfection, TIG113; for degree of spheroid formation: number of ES cell colony-like spheroids, peptide 30 μg/well solid-phased on 12 well plate, 2×10^4 cells seeded, measured 7-10 days later
Protocol: Human adult fibroblast strain TIG113 was cultured in a medium mainly containing 10% fetal bovine serum-containing EMEM under humidified conditions at 37° C. and 5% CO2 until it reached 1×10^7 cells. A plate for reverse transfection was prepared by applying each peptide shown in Table 1 to each well of a 12 well plate at a concentration of 30 μg/well, and forming a solid phase by air-drying. Grown TIG113 was washed with CMF-PBS, and incubated in 0.25% trypsin solution at 37° C. for 10-15 min to dissociate the cells. Centrifugation and washing with PBS were repeated twice and the cells were suspended in iPS medium (manufactured by ReproCELL Incorporated). Using the cell suspension, human fibroblast was seeded at 2×10^4 cells on a plate for reverse transfection. As a reverse transfection medium, an iPS medium containing 10% fetal bovine serum and not containing bFGF was used. The number of ES colony-like spheroids formed was measured 7-10 days later, and the spheroid formation degree was evaluated (Table 1). In an experiment using the peptides of H11, H16, and H29, the ratio of the cells forming spheroid was calculated.

[2] = test system: Human adult fibroblast strain TIG113; experiment: Marker expression (immunostaining, alkaline phosphatase staining) of spheroid cells
Protocol: The pluripotent spheroid cell obtained in Example 1, by introducing a reprogramming peptide into differentiated cell, was examined for undifferentiation, expression of nerve marker and the like.
Using the H11 peptide shown in Table 1, the cells were made to form spheroid according to the method shown in Example 1, and incubated in 1% H2O2 containingmethanol at room temperature for 5 min to immobilize the cells. The cells were washed five times with PBS, and blocked with PBS containing 5% FBS/0.05% gelatin/3% skim milk/1% BSA (hereinafter Block Ace) at room temperature for 1-2 hr. Furthermore, the cells were reacted at room temperature for 2 hr with the primary antibody shown in Table 2 and appropriately diluted with Block Ace. The cells were washed five times with PBS, and the HPR-labeled secondary antibody was appropriately diluted with Block Ace and reacted at room temperature for 1 hr. Lastly, the cells were washed five times with PBS, and the antigen was visualized according to the protocol of Peroxidase Stain DAB Kit &enhancer (Nacalai Tesque).
For alkaline phosphatase staining, the cells immobilized by the aforementioned method were incubated at room temperature for 30 min using BCIP/NBT Color Development Substrate (Promega). The reaction was quenched by washing five times with PBS.

[3] = test system: human fibroblast (manufactured by KURABO INDUSTRIES LTD.); experiment: Spheroid formation and marker expression using human adult fibroblast
Description: Using a method similar to that of Example 1, H11 peptide was introduced into human fibroblast (manufactured by KURABO INDUSTRIES LTD.).
The prepared spheroid was subjected to expression analysis of pluripotency marker and differentiation marker according to the method of Example 2. As a result, it was positive to pluripotency markers of alkaline phosphatase, SSEA-3, TRA-1-61, Oct3/4, Sox2, and Nanog. Furthermore, the expression of neural stem cell marker nestin, nerve marker neurofilament 160, βIII tubulin, MAP2, and GFAP was confirmed by continuous culture. Furthermore, the expression of insulin producing cell marker proinsulin, and C-peptide was also confirmed.

A549 = experiment: Spheroid formation and marker staining in various cells
Description: (§1) By a method similar to that of Example 1, H11 peptide was introduced into BHK21, A549, H293 cell, mouse feeder cell (COSMO BIO co., ltd.: RCHEFC003), bovine vascular endothelial cell (TOYOBO CO., LTD.: CAB300K05), and swine vascular endothelial cell (TOYOBO CO., LTD.: CAP300K05).

BHK21 = experiment: as above
Description: as §1

H293 cell = experiment: as above
Description: as §1

[4] = test system: bovine vascular endothelial cell; experiment: as above
Description: as §1

mouse feeder cell = experiment: as above
Description: as §1

[5] = test system: swine vascular endothelial cell; experiment: as above
Description: as §1

[6] = test system: Human adult fibroblast strain TIG113; experiment: CD105/CD146/CD31 antibody staining of spheroid cells
Protocol: The pluripotent spheroid cell obtained in Example 1 by introducing a reprogramming peptide into a differentiated cell was examined for undifferentiation, and expressions of nerve marker and the like.
Using the H11 peptide shown in Table 1, the cells were made to form spheroid according to the method shown in Example 1 and incubated using 1% H2O2-containing methanol at room temperature for 5 min, and immobilized.
Using the antibody described in Table 3, cells were stained according to a package insert. As the secondary antibody, HRP-labeled goat anti-mouse IgG antibody (manufactured by Promega KK, Goat Anti-Mouse IgG (H+L), HRP Conjugate) was used.

Ac-GALFLGFLGAAGSTMGA-Cysamide [H13]
spheroid formation ability (in words) [1]: no spheroid formation ability

Ac-GALFLGFLGAAGSTMGA/WSQ/KKRTLRKNDRKKR-Cysamide (Ac-GALFLGFLGAAGSTMGAWSQKKRTLRKNDRKKR-Cysamide) [H36]
degree of spheroid formation [1]: +++ (+++ about 50-100)

Ac-GALFLGFLGAAGSTMGA/WSQ/RSRKYTSWYVALKR-Cysamide (Ac-GALFLGFLGAAGSTMGAWSQRSRKYTSWYVALKR-Cysamide) [H37]
degree of spheroid formation [1]: +++ (+++ about 50-100)

Ac-GALFLGFLGAAGSTMGAWSQGKKRSKA-Cysamide [H29]
degree of spheroid formation [1]: +++ (+++ about 50-100) | spheroid formation ability (in words) [1]: has spheroid formation ability

Ac-GALFLGFLGAAGSTMGAWSQPKKKRKV-Cysamide [H11]
degree of spheroid formation [1]: +++ (+++ about 50-100) | expression of pluripotent markers alkaline phosphatase, Oct3/4, Sox2, Nanog, SSEA-3, Tra-1-81 ([2]; spheroid cells from TIG113): express | expression of proinsulin and C-peptide (insulin producing cell markers) ([2]; spheroid cells from TIG113): confirmed | expression of nestin, neurofilament 160, βIII tubulin, MAP2, GFAP ([2]; when the culture period becomes long): confirmed | expression of alpha-fetoprotein and albumin [3]: confirmed | expression of proinsulin and C-peptide [3]: confirmed | oil red O staining [3]: differentiation into adipose tissue was found | expression of nestin, neurofilament 160, βIII tubulin, MAP2, GFAP ([3]; continuous culture): confirmed | spheroid formation ([3]; human fibroblast (KURABO)): finally formed spheroid | pluripotency markers alkaline phosphatase, SSEA-3, TRA-1-61, Oct3/4, Sox2, Nanog ([3]; prepared spheroid): positive | alkaline phosphatase, SSEA-3 staining (A549): positive | spheroid formation (A549): formed spheroids | alkaline phosphatase, SSEA-3 staining (BHK21): positive | spheroid formation (BHK21): formed spheroids | alkaline phosphatase, SSEA-3 staining (H293 cell): positive | spheroid formation (H293 cell): formed spheroids | alkaline phosphatase, SSEA-3 staining [4]: positive | spheroid formation [4]: formed spheroids | alkaline phosphatase, SSEA-3 staining (mouse feeder cell): positive | spheroid formation (mouse feeder cell): formed spheroids | alkaline phosphatase, SSEA-3 staining [5]: positive | spheroid formation [5]: formed spheroids | mesenchymal stem cell marker CD105 [6]: positive | pericyte marker CD146 [6]: positive | vascular endothelial cell marker CD31 [6]: negative

Ac-GALFLGFLGAAGSTMGAWSQPKSKRKV-Cysamide [H6]
degree of spheroid formation [1]: + (+ about −10)

Ac-GALFLGFLGAAGSTMGAmSQPKSKRKV-Cysamide (Ac-GALFLGFLGAAGSTMGA[dM]SQPKSKRKV-Cysamide) [H10]
degree of spheroid formation [1]: + (+ about −10)

Ac-PKKKRKV-Cysamide [H18, SV40 Large T antigen NLS]
spheroid formation ability (in words) [1]: Spheroid is not formed

Ac-RQIKIWFQNRRMKWKKWSQGKKRSKA-Cysamide [H31]
degree of spheroid formation [1]: + (+ about −10)

GALFLGFLGAAGSTMGAWSQPKSKRKV (Reprogramming peptide) [H1]
degree of spheroid formation [1]: ++ (++ about 10-50)

GALFLGFLGAAGSTMGAmSQPKSKRKV (GALFLGFLGAAGSTMGAMSQPKSKRKV; not fully specified; D-Met; Reprogramming peptide) [H5]
degree of spheroid formation [1]: + (+ about −10)
